In brackets after ≈: the same amount, converted by molar mass.
tested on: Nakaseomyces glabratus; test: Antifungal activity against 88 days cultured Candida glabrata isolated from HSCT recipient with acute or chronic GVHD mouth receiving antifungal therapy for 75 days after 33 days of prophylaxis by broth microdilution method; type: functional

SMILES | MIC [µg/mL]
CCC(C)n1ncn(-c2ccc(N3CCN(c4ccc(OCC5COC(Cn6cncn6)(c6ccc(Cl)cc6Cl)O5)cc4)CC3)cc2)c1=O (stereo not given) [ITRACONAZOLE] | 2 (≈ 2.83 µM)

tested on: Candida tropicalis; test: Antifungal activity against -3 days cultured Candida tropicalis isolated from neutropenic subject with AML or MDS stool receiving antifungal therapy for 45 days after 24 days of prophylaxis by broth microdilution method; type: functional

SMILES | MIC [µg/mL]
CCC(C)n1ncn(-c2ccc(N3CCN(c4ccc(OCC5COC(Cn6cncn6)(c6ccc(Cl)cc6Cl)O5)cc4)CC3)cc2)c1=O (stereo not given) [ITRACONAZOLE] | 0.03 (≈ 0.0425 µM)

tested on: Candida albicans; test: Antifungal activity against Candida albicans isolated from neutropenic subjects with AML or MDS receiving fluconazole assessed as maximum MIC by broth microdilution method; type: functional

SMILES | MIC [µg/mL]
CCC(C)n1ncn(-c2ccc(N3CCN(c4ccc(OCC5COC(Cn6cncn6)(c6ccc(Cl)cc6Cl)O5)cc4)CC3)cc2)c1=O (stereo not given) [ITRACONAZOLE] | 8

tested on: Nakaseomyces glabratus; test: Antifungal activity against Candida glabrata isolated from HSCT recipients with acute or chronic GVHD prior to initiation of fluconazole therapy by broth microdilution method; type: functional

SMILES | MIC50 [µg/mL] | MIC90 [µg/mL]
CCC(C)n1ncn(-c2ccc(N3CCN(c4ccc(OCC5COC(Cn6cncn6)(c6ccc(Cl)cc6Cl)O5)cc4)CC3)cc2)c1=O (stereo not given) [ITRACONAZOLE] | 2 (≈ 2.83 µM) | 16 (≈ 22.7 µM)

tested on: Pichia kudriavzevii; test: Antifungal activity against 19 days cultured Candida krusei isolated from invasive fungal infected subject blood receiving antifungal therapy for 19 days after 6 days of prophylaxis by broth microdilution method; type: functional

SMILES | MIC [µg/mL]
CCC(C)n1ncn(-c2ccc(N3CCN(c4ccc(OCC5COC(Cn6cncn6)(c6ccc(Cl)cc6Cl)O5)cc4)CC3)cc2)c1=O (stereo not given) [ITRACONAZOLE] | 0.25 (≈ 0.354 µM)

tested on: Nakaseomyces glabratus; test: Antifungal activity against 29 days cultured Candida glabrata isolated from neutropenic subject with AML or MDS stool after 48 days of prophylaxis by broth microdilution method; type: functional

SMILES | MIC [µg/mL]
CCC(C)n1ncn(-c2ccc(N3CCN(c4ccc(OCC5COC(Cn6cncn6)(c6ccc(Cl)cc6Cl)O5)cc4)CC3)cc2)c1=O (stereo not given) [ITRACONAZOLE] | 1 (≈ 1.42 µM)

tested on: Nakaseomyces glabratus; test: Antifungal activity against 14 days cultured Candida glabrata isolated from HSCT recipient with acute or chronic GVHD mouth after 17 days of prophylaxis by broth microdilution method; type: functional

SMILES | MIC [µg/mL]
CCC(C)n1ncn(-c2ccc(N3CCN(c4ccc(OCC5COC(Cn6cncn6)(c6ccc(Cl)cc6Cl)O5)cc4)CC3)cc2)c1=O (stereo not given) [ITRACONAZOLE] | > 8

tested on: Nakaseomyces glabratus; test: Antifungal activity against Candida glabrata isolated from neutropenic subjects with AML or MDS prior to initiation of posaconazole therapy assessed as maximum MIC by broth microdilution method; type: functional

SMILES | MIC [µg/mL]
CCC(C)n1ncn(-c2ccc(N3CCN(c4ccc(OCC5COC(Cn6cncn6)(c6ccc(Cl)cc6Cl)O5)cc4)CC3)cc2)c1=O (stereo not given) [ITRACONAZOLE] | 8

tested on: Candida albicans; test: Antifungal activity against 1 day cultured Candida albicans isolated from HSCT recipient with acute or chronic GVHD mouth after 2 days of prophylaxis by broth microdilution method; type: functional

SMILES | MIC [µg/mL]
CCC(C)n1ncn(-c2ccc(N3CCN(c4ccc(OCC5COC(Cn6cncn6)(c6ccc(Cl)cc6Cl)O5)cc4)CC3)cc2)c1=O (stereo not given) [ITRACONAZOLE] | < 0.03

tested on: Candida albicans; test: Antifungal activity against Candida albicans isolated from HSCT recipients with acute or chronic GVHD prior to initiation of fluconazole therapy by broth microdilution method; type: functional

SMILES | MIC50 [µg/mL] | MIC90 [µg/mL]
CCC(C)n1ncn(-c2ccc(N3CCN(c4ccc(OCC5COC(Cn6cncn6)(c6ccc(Cl)cc6Cl)O5)cc4)CC3)cc2)c1=O (stereo not given) [ITRACONAZOLE] | 0.03 (≈ 0.0425 µM) | 0.06 (≈ 0.085 µM)

tested on: Candida albicans; test: Antifungal activity against Candida albicans isolated from HSCT recipient 262 with acute or chronic GVHD mouth receiving antifungal drug after 115 days prophylaxis by broth microdilution method; type: functional

SMILES | MIC [µg/mL]
CCC(C)n1ncn(-c2ccc(N3CCN(c4ccc(OCC5COC(Cn6cncn6)(c6ccc(Cl)cc6Cl)O5)cc4)CC3)cc2)c1=O (stereo not given) [ITRACONAZOLE] | 0.06 (≈ 0.085 µM)

tested on: Pichia kudriavzevii; test: Antifungal activity against 13 days cultured Candida krusei isolated from invasive fungal infected subject blood after 12 days of prophylaxis by broth microdilution method; type: functional

SMILES | MIC [µg/mL]
CCC(C)n1ncn(-c2ccc(N3CCN(c4ccc(OCC5COC(Cn6cncn6)(c6ccc(Cl)cc6Cl)O5)cc4)CC3)cc2)c1=O (stereo not given) [ITRACONAZOLE] | 0.25 (≈ 0.354 µM)

tested on: Candida albicans; test: Antifungal activity against Candida albicans isolated from HSCT recipient 031 with acute or chronic GVHD mouth after 109 days prophylaxis by broth microdilution method; type: functional

SMILES | MIC [µg/mL]
CCC(C)n1ncn(-c2ccc(N3CCN(c4ccc(OCC5COC(Cn6cncn6)(c6ccc(Cl)cc6Cl)O5)cc4)CC3)cc2)c1=O (stereo not given) [ITRACONAZOLE] | 0.03 (≈ 0.0425 µM)

tested on: Nakaseomyces glabratus; test: Antifungal activity against Candida glabrata isolated from HSCT recipient 807 with acute or chronic GVHD mouth receiving antifungal drug after 114 days prophylaxis by broth microdilution method; type: functional

SMILES | MIC [µg/mL]
CCC(C)n1ncn(-c2ccc(N3CCN(c4ccc(OCC5COC(Cn6cncn6)(c6ccc(Cl)cc6Cl)O5)cc4)CC3)cc2)c1=O (stereo not given) [ITRACONAZOLE] | > 8

tested on: Candida albicans; test: Antifungal activity against Candida albicans isolated from neutropenic subjects with AML or MDS receiving fluconazole by broth microdilution method; type: functional

SMILES | MIC50 [µg/mL] | MIC90 [µg/mL]
CCC(C)n1ncn(-c2ccc(N3CCN(c4ccc(OCC5COC(Cn6cncn6)(c6ccc(Cl)cc6Cl)O5)cc4)CC3)cc2)c1=O (stereo not given) [ITRACONAZOLE] | 0.015 (≈ 0.0213 µM) | 0.015 (≈ 0.0213 µM)

tested on: Nakaseomyces glabratus; test: Antifungal activity against 10 days cultured Candida glabrata isolated from neutropenic subject with AML or MDS stool receiving antifungal therapy for 37 days after 9 days of prophylaxis by broth microdilution method; type: functional

SMILES | MIC [µg/mL]
CCC(C)n1ncn(-c2ccc(N3CCN(c4ccc(OCC5COC(Cn6cncn6)(c6ccc(Cl)cc6Cl)O5)cc4)CC3)cc2)c1=O (stereo not given) [ITRACONAZOLE] | 2 (≈ 2.83 µM)

tested on: Candida albicans; test: Antifungal activity against Candida albicans isolated from HSCT recipients with acute or chronic GVHD receiving fluconazole by broth microdilution method; type: functional

SMILES | MIC50 [µg/mL] | MIC90 [µg/mL]
CCC(C)n1ncn(-c2ccc(N3CCN(c4ccc(OCC5COC(Cn6cncn6)(c6ccc(Cl)cc6Cl)O5)cc4)CC3)cc2)c1=O (stereo not given) [ITRACONAZOLE] | 0.03 (≈ 0.0425 µM) | 16 (≈ 22.7 µM)

tested on: Nakaseomyces glabratus; test: Antifungal activity against 7 days cultured Candida glabrata isolated from neutropenic subject with AML or MDS stool receiving antifungal therapy for 37 days after 9 days of prophylaxis by broth microdilution method; type: functional

SMILES | MIC [µg/mL]
CCC(C)n1ncn(-c2ccc(N3CCN(c4ccc(OCC5COC(Cn6cncn6)(c6ccc(Cl)cc6Cl)O5)cc4)CC3)cc2)c1=O (stereo not given) [ITRACONAZOLE] | 1 (≈ 1.42 µM)

tested on: Nakaseomyces glabratus; test: Antifungal activity against 42 days cultured Candida glabrata isolated from neutropenic subject with AML or MDS stool after 48 days of prophylaxis by broth microdilution method; type: functional

SMILES | MIC [µg/mL]
CCC(C)n1ncn(-c2ccc(N3CCN(c4ccc(OCC5COC(Cn6cncn6)(c6ccc(Cl)cc6Cl)O5)cc4)CC3)cc2)c1=O (stereo not given) [ITRACONAZOLE] | 1 (≈ 1.42 µM)

tested on: Pichia kudriavzevii; test: Antifungal activity against 6 days cultured Candida krusei isolated from neutropenic subject with AML or MDS pharynx receiving antifungal therapy for 19 days after 6 days of prophylaxis by broth microdilution method; type: functional

SMILES | MIC [µg/mL]
CCC(C)n1ncn(-c2ccc(N3CCN(c4ccc(OCC5COC(Cn6cncn6)(c6ccc(Cl)cc6Cl)O5)cc4)CC3)cc2)c1=O (stereo not given) [ITRACONAZOLE] | 0.5 (≈ 0.709 µM)

tested on: Candida albicans; test: Antifungal activity against Candida albicans isolated from HSCT recipient 042 with acute or chronic GVHD mouth receiving antifungal drug after 112 days prophylaxis by broth microdilution method; type: functional

SMILES | MIC [µg/mL]
CCC(C)n1ncn(-c2ccc(N3CCN(c4ccc(OCC5COC(Cn6cncn6)(c6ccc(Cl)cc6Cl)O5)cc4)CC3)cc2)c1=O (stereo not given) [ITRACONAZOLE] | 0.06 (≈ 0.085 µM)

From ChEMBL document CHEMBL1687752, “Impact of antifungal prophylaxis on colonization and azole susceptibility of Candida species” (2009)
